Legend:
[1] = test system: larvae of click beetles of the genus Agriotes, in particular Agriotes sordidus; assay: Maize field trial, St Hilaire: emerged plants counted after bait granules incorporated in the sowing row; format: in vivo; conditions: 22 days after sowing, 2 mm maize-meal granules with 0.25% fipronil, untreated 19
Excerpt: (§1) A surface of 0.1 ha is sown with maize at the rate of about 8000 untreated seeds. This surface is divided into 40-m^2 plots. At the same time as the sowing, there are incorporated into the soil, in the sowing row, 2 mm granules containing a composition consisting of: The quantities of granules thus spread vary from 2.5 to 10 kg per hectare. Untreated plots are kept to serve as control and to verify the extent of the damage by the insects. Likewise, the plots will be treated with a commercial insecticide which is reputed effective and called reference. Each modality is repeated four times. Approximately 20 days after sowing, the maize plants which have emerged are counted. The soil is dug out and scraped in order to capture and identify the insects responsible for the damage; a large presence of larvae of click beetles of the genus Agriotes, in particular Agriotes sordidus, is observed for the untreated control.

[2] = test system: larvae of click beetles of the genus Agriotes, in particular Agriotes lineatus; assay: Maize field trial, Beaufort: emerged plants counted after bait granules incorporated in the sowing row; format: in vivo; conditions: 50 days after sowing, 2 mm maize-meal granules with 0.25% fipronil, untreated 30
Excerpt: as §1, with “1” for “0.1”, “98, 100” for “8000”, “27-m^2” for “40-m^2”, “50” for “20”, “lineatus.” for “sordidus, is observed for the untreated control.”

[3] = dose of fipronil 6 g per hectare
[4] = dose of fipronil 50 g per hectare

N#Cc1nn(-c2c(Cl)cc(C(F)(F)F)cc2Cl)c(N)c1[S+]([O-])C(F)(F)F (stereo not shown) [fipronil, 5-amino-3-cyano-1-[2,6-di-chloro-4-(trifluoromethyl)phenyl]-4-[(trifluoromethyl)-sulphinyl]-1H-pyrazole]
plants observed per 10 meters of furrow [1, 3]: 49 plants per 10 meters of furrow | plants observed per 10 meters of furrow [1, 4]: 49 plants per 10 meters of furrow | plants observed per 10 meters of furrow [2, 3]: 40 plants per 10 meters of furrow | plants observed per 10 meters of furrow [2, 4]: 49.8 plants per 10 meters of furrow
